Source: patent publication US12466821B2 (Novartis AG, priority 2018, dated 2025)
Where two headings read alike, the source gives them in different places.

What was measured:
[1] = target: human CMV DNA polymerase UL54 (Human cytomegalovirus (strain AD169) (HHV-5) (Human herpesvirus 5), UniProt P08546); assay: CMV polymerase biochemical assay (molecular beacon-based)
Method in brief: (§1)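 Readout was beacon fluorescence (ex 480, em 535 nm), used to derive IC50. Each dNTP was at 1.25 uM, with 200 nM primer and 100 nM beacon, after a 30-min RT inhibitor preincubation. Enzyme was 625 pM for HSV UL30 (20 min RT reaction) or 100 pM for CMV UL54 (60 min RT), both sf9-expressed MBP fusions, in pH 7.5 Tris buffer with MgCl2.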

[2] = system: Luciferase-encoding HCMV, AD169 strain; assay: CMV Luciferase assay (cellular herpesvirus replication); type: cell-based
Method in brief: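 Neonatal human dermal fibroblasts were pretreated 1 h with compound (final 0.0159–50 μM or 0.00318–10 μM, 0.5% DMSO), then infected at MOI 1 with AD169 carrying pp28-promoter luciferase. After 72 h at 37 °C, Renilla-Glo luminescence normalized to no-virus and virus-only controls; EC50 by 4-parameter logistic model.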

[3] = target: human HSV DNA polymerase UL30 (Human herpesvirus 1 (strain 17) (HHV-1) (Human herpes simplex virus 1), UniProt P04293); assay: HSV polymerase biochemical assay (molecular beacon-based)
Method in brief: as §1

[4] = Human betaherpesvirus 5, AD169, read-out: CMV-Luc Cellular EC50

SMILES | IC50 [1] | EC50 [2, 4] | IC50 [3] | EC50 ([2]; read-out: CMV-Luc Cellular EC50)
N#Cc1ccc(CNC(=O)c2ccc3n(c2=O)CCN(CC2(S(=O)(=O)C4CC4)CC2)C3=O)cc1F [Example 3-1] | 0.8 nM | 17.7 nM | 38.1 nM | 
N#Cc1ccc(CNC(=O)c2ccc3n(c2=O)CCN(CC2(S(=O)(=O)C4(C(F)F)CC4)CC2)C3=O)cc1 [Example 99-1] | 1 nM | 43.9 nM | 49.4 nM | 
C[S@](=N)(=O)C1(CN2CCn3c(ccc(C(=O)NCc4ccc(Cl)cc4)c3=O)C2=O)CC1 (single isomer, unassigned) [Example 96-2] | 66.5 nM | 847 nM | 1920 nM | 
N#Cc1ccc(CNC(=O)c2ccc3n(c2=O)CCN(CC2(S(=O)(=O)C4CCNC4)CC2)C3=O)cc1F (stereo not drawn) [Example 81-1] | 3.8 nM | 1070 nM | 152 nM | 
CCc1cc(C(=O)NCc2ccc(Cl)cc2)c(=O)n2c1C(=O)N(CCN(C)S(C)(=O)=O)CC2 [Example 134, N-(4-chlorobenzyl)-9-ethyl-2-(2-(N-methylmethylsulfonamido)ethyl)-1,6-dioxo-1,3,4,6-tetrahydro-2H-pyrido[1,2-a]pyrazine-7-carboxamide] | 268 nM | 2870 nM | 2120 nM | 
O=C(NCc1ccc(Cl)cc1)c1ccc2n(c1=O)CCN(CCO)C2=O [Example 116, N-(4-chlorobenzyl)-2-(2-hydroxyethyl)-1,6-dioxo-2,3,4,6-tetrahydro-1H-pyrido[1,2-a]pyrazine-7-carboxamide] | 2140 nM | 24700 nM | 14100 nM | 
N#Cc1ccc(CNC(=O)c2ccc3n(c2=O)CCN(CC2(S(=O)(=O)CC4(C#N)CC4)CC2)C3=O)cc1 [Example 111] | 3.6 nM | 433 nM | 59.5 nM | 
N#Cc1ccc(CNC(=O)c2ccc3n(c2=O)CCN(CC2(S(=O)(=O)C4COC4)CC2)C3=O)cc1 [Example 28] | 2.7 nM | 116 nM | 68.7 nM | 
O=C(NCc1ccc(Cl)cc1)c1ccc2n(c1=O)CCN(CC1(N3CCCS3(=O)=O)CC1)C2=O [Example 70, N-(4-chlorobenzyl)-2-((1-(1,1-dioxidoisothiazolidin-2-yl)cyclopropyl)methyl)-1,6-dioxo-2,3,4,6-tetrahydro-1H-pyrido[1,2-a]pyrazine-7-carboxamide] | 1.4 nM | 40.1 nM | 28.1 nM | 
COC1(S(=O)(=O)C2(CN3CCn4c(ccc(C(=O)NCc5ccc(C#N)c(F)c5)c4=O)C3=O)CC2)CC1 [Example 190] | 1.4 nM | 47.8 nM | 66.5 nM | 
N#Cc1ccc(CNC(=O)c2ccc3n(c2=O)CCN(CC2(S(=O)(=O)C4CNC4)CC2)C3=O)cc1F [Example 16, 2-((1-(azetidin-3-ylsulfonyl)cyclopropyl)methyl)-N-(4-cyano-3-fluorobenzyl)-1,6-dioxo-2,3,4,6-tetrahydro-1H-pyrido[1,2-a]pyrazine-7-carboxamide] | 6.1 nM | 3420 nM | 285 nM | 
N#Cc1ccc(CNC(=O)c2ccc3n(c2=O)CCN(CC2(S(=O)(=O)C4(F)CC4)CC2)C3=O)cc1F [Example 77-2] | 1.9 nM | 57.7 nM | 77.2 nM | 
Cc1cc(C(=O)NCc2ccc(Cl)cc2)c(=O)n2c1C(=O)N(CC1(S(=O)(=O)C3CC3)CC1)CC2 [Example 93-2] | 0.8 nM | 15.3 nM | 28.6 nM | 
N#Cc1ccc(CNC(=O)c2ccc3n(c2=O)CCN(CC2(S(=O)(=O)C4(CF)CC4)CC2)C3=O)cc1F [Example 14] | 0.3 nM | 10 nM | 27.9 nM | 
N#Cc1ccc(CNC(=O)c2cc(F)c3n(c2=O)CCN(CC2(S(=O)(=O)C4CC4)CC2)C3=O)cc1 [Example 161] | 1.5 nM | 59.9 nM | 57.1 nM | 
CS(=O)(=O)CCCN1CCn2c(c(C#CCO)cc(C(=O)NCc3ccc(Cl)cc3)c2=O)C1=O [Example 156] | 913 nM | 50000 nM | 2110 nM | 

SMILES | IC50 [1] | EC50 [2, 4] | IC50 [3] | EC50 ([2]; read-out: CMV-Luc Cellular EC50)
CS(=O)(=O)C1(CN2CCn3c(ccc(C(=O)NCc4ccc(C#N)c(F)c4)c3=O)C2=O)CC1 [Example 39] | 3.5 nM | 102 nM | 105 nM | 
Cc1cc(C(=O)NCc2ccc(Cl)cc2)c(=O)n2c1C(=O)N(CC1(S(C)(=O)=O)CC1)CC2 [Example 86-3] | 1.8 nM |  | 45.3 nM | 34.6 nM
CCS(=O)(=O)N(C)CCN1CCn2c(ccc(C(=O)NCc3ccc(Cl)cc3)c2=O)C1=O [Example 59] | 138 nM | 1640 nM | 1480 nM | 
O=C(NCc1ccc(Cl)cc1)c1ccc2n(c1=O)CCN(CC1(S(=O)(=O)CCCO)CC1)C2=O [Example 25] | 2.8 nM | 88.9 nM | 80.8 nM | 
CNc1cc(CNC(=O)c2ccc3n(c2=O)CCN(CC2(S(=O)(=O)C4CC4)CC2)C3=O)ccc1C#N [Example 212, N-(4-cyano-3-(methylamino)benzyl)-2-((1-(cyclopropylsulfonyl)cyclopropyl)methyl)-1,6-dioxo-1,3,4,6-tetrahydro-2H-pyrido[1,2-a]pyrazine-7-carboxamide] | 0.6 nM | 315 nM | 51.4 nM | 
CCS(=O)(=O)CCN1CCn2c(ccc(C(=O)NCc3ccc(Cl)cc3)c2=O)C1=O [Example 53] | 149 nM | 1460 nM | 365 nM | 
CS(=O)(=O)N1CCC1CN1CCn2c(ccc(C(=O)NCc3ccc(Cl)cc3)c2=O)C1=O (stereo not drawn) [Example 66] | 112 nM | 1520 nM | 1180 nM | 
N#Cc1ccc(CNC(=O)c2ccc3n(c2=O)CCN(CC2(S(=O)(=O)[C@H]4CC4(F)F)CC2)C3=O)cc1 (single isomer, unassigned) [Example 100-1] | 1.4 nM | 93.6 nM | 48.2 nM | 
N#Cc1ccc(CNC(=O)c2ccc3n(c2=O)CCN(CC2(S(=O)(=O)C4CCCC4)CC2)C3=O)cc1F [Example 21] | 0.8 nM | 58 nM | 35.4 nM | 
CNS(=O)(=O)C1(CN2CCn3c(ccc(C(=O)NCc4ccc(C#N)cc4)c3=O)C2=O)CC1 [Example 75-2] | 2.7 nM | 62.2 nM | 77.3 nM | 
O=C(NCc1ccc(Cl)cc1)c1ccc2n(c1=O)CCN(CC1(C(=O)N3CCCC3)CC1)C2=O [Example 210] | 25.7 nM | 494 nM | 428 nM | 
CCS(=O)(=O)C1(CN2CCn3c(ccc(C(=O)NCc4ccc(Cl)cc4)c3=O)C2=O)CC1 [Example 36] | 0.7 nM | 24.9 nM | 42.3 nM | 
N#Cc1ccc(CNC(=O)c2ccc3n(c2=O)CCN(CC2(S(=O)(=O)C4(C(F)(F)F)CC4)CC2)C3=O)cc1 [Example 97-1] | 5 nM | 222 nM | 122 nM | 
N#Cc1ccc(CNC(=O)c2ccc3n(c2=O)CCN(CC2(S(=O)(=O)[C@H]4CC4(F)F)CC2)C3=O)cc1F (single isomer, unassigned) [Example 101-1] | 1 nM | 55.5 nM | 48.7 nM | 
N#Cc1ccc(CNC(=O)c2ccc3n(c2=O)CCN(CC2(N4CCOC4=O)CC2)C3=O)cc1 [Example 89-2] | 174 nM | 3330 nM | 2520 nM | 
O=C(NCc1ccc(Cl)cc1)c1ccc2n(c1=O)CCN(CC1(S(=O)(=O)C3CNC3)CC1)C2=O [Example 19] | 3.9 nM | 538 nM | 149 nM | 
